Data set [1] is described as follows: Pharmacokinetics of nalbuphine in beagles after oral administration of SDN compositions. The settings on record: 30 mg/kg of SDN; for AUC/Dose: nalbuphine in plasma, 30 mg/kg. As for the experimental part: To assess the effects of various pharmaceutical compositions of the present invention on beagles. The compositions were orally administered into beagles, and the concentration of nalbuphine in vivo was monitored in the animals as follows:
2, In each study group, the pharmaceutical composition that contained 30 mg/kg of SDN were orally given to beagles.
4. The blood samples were analyzed by high performance liquid chromatography (HPLC) to determine the pharmacokinetics (including the half-life and bioavailability of nalbuphine) in vivo.

The nature of data set [2]: Efficacy and bioavailability study of nalbuphine ester prodrugs as orally administered compositions. The settings on record: oral composition with oily substance, effect of adding the solubility-assisting agent; comparison among active ingredients. The format is in vivo, animals and humans. The source says: Each and every one of these nalbuphine and/or nalbuphine ester prodrugs as listed above has been tested for suitability as an orally administered pharmaceutical composition for use in animals and humans. The efficacy and bioavailability of these nalbuphine ester prodrugs have been studied.

The conditions of data set [3]: literature; cited from earlier work.

Regarding `O=C(CCCCCCCCC(=O)Oc1ccc2c3c1O[C@H]1[C@@H](O)CC[C@@]4(O)[C@@H](C2)N(CC2CCC2)CC[C@]314)Oc1ccc2c3c1O[C@H]1[C@@H](O)CC[C@@]4(O)[C@@H](C2)N(CC2CCC2)CC[C@]314` [SDN Powder, sebacoyl dinalbuphine ester], in data set [1] (FIG. 1, comparison among groups), the “concentration of nalbuphine in plasma 1-3 hours after the oral uptake of SDN” value is “much less than the other two groups”. Moreover, in data set [1] (FIG. 1, later time points), the “concentration of nalbuphine in plasma after the peak” value is reported as “decreased substantially”. Also, the Bioavailability in data set [1] (bioavailability of nalbuphine, means ± S.E.) is 14.6%. Also, in data set [1] (nalbuphine in plasma by HPLC, means ± S.E.), the “Nalbuphine Half-Life” value was determined as 8.1 ± 1.6 h. In addition, the AUC/Dose in data set [1] (means ± S.E.) worked out at 39 ± 11 ng·kg·h/mL/mg; in data set [1] (means ± S.E., listed as SDN Powder Group), 39 ng·kg·h/mL/mg. The “bioavailability and half-life of nalbuphine in blood” value in data set [2] was “the best in terms of longer half-life and greater bioavailability rate”.

In the case of “nalbuphine hydrochloride [nalbuphine-HCl]”, the “bioavailability through oral administration” value in data set [3] is recorded as “less than 5%”.

The values are drawn from patent US6703398B2, “Orally administered analgesic compositions containing nalbuphine” (priority 2001, dated 2004).
